Results on 3 compounds are retold here after ChEMBL document CHEMBL3045737, “Evaluation of toxicity and genotoxic effects of spinosad and deltamethrin in Drosophila melanogaster and Bactrocera oleae” (Pest Manag Sci, 2011).

≈ marks a conversion by molar mass, not a printed value.

Series [1] deals with Drosophila melanogaster. The series is described as follows: Insecticidal activity against Drosophila melanogaster adults assessed as death treated upto 192 hr at 24 +/- 1 degC, 60%RH. Format: functional. The following applies: for LC50: Drosophila melanogaster, 192 h.
For series [2], the system named is Bactrocera oleae. The series can be described thus: Insecticidal activity against Bactrocera oleae adults assessed as death treated upto 120 hr at 24 +/- 1 degC, 60%RH. In kind it is functional. The following applies: for LC50: Bactrocera oleae, 120 h.
Series [3] relates to Drosophila melanogaster. The series can be described thus: Genotoxicity in Drosophila melanogaster larvae at 0.10 to 0.30 mg/l. In kind it is organism-based. As to conditions: in vivo.
The subject of series [4] is Bactrocera oleae. The series can be described thus: Insecticidal activity against Bactrocera oleae adults assessed as death treated upto 192 hr at 24 +/- 1 degC, 60%RH. Format: functional. As to conditions: for LC50: Bactrocera oleae, 192 h.
Series [5] concerns Drosophila melanogaster. The series is described as follows: Insecticidal activity against Drosophila melanogaster adults assessed as death treated upto 24 hr at 24 +/- 1 degC, 60%RH. In kind it is functional. As to conditions: for LC50: Drosophila melanogaster, 24 h.
Series [6] relates to Drosophila melanogaster. The series is described as follows: Insecticidal activity against Drosophila melanogaster adults assessed as death treated upto 72 hr at 24 +/- 1 degC, 60%RH. Format: functional. The following applies: for LC50: Drosophila melanogaster, 72 h.
For series [7], the system named is Bactrocera oleae. The series can be described thus: Insecticidal activity against Bactrocera oleae adults assessed as death treated upto 72 hr at 24 +/- 1 degC, 60%RH. Format: functional. As to conditions: for LC50: Bactrocera oleae, 72 h.
Series [8] deals with Bactrocera oleae. The series can be described thus: Insecticidal activity against Bactrocera oleae adults assessed as death treated upto 24 hr at 24 +/- 1 degC, 60%RH. In kind it is functional. As to conditions: for LC50: Bactrocera oleae, 24 h.
Series [9] concerns Drosophila melanogaster. The series can be described thus: Insecticidal activity against Drosophila melanogaster larvae assessed as death at 24 +/- 1 degC, 60%RH. Format: functional. The following applies: for LC50: Drosophila melanogaster.
In series [10] the test system is Drosophila melanogaster. The series is described as follows: Insecticidal activity against Drosophila melanogaster adults assessed as death treated upto 120 hr at 24 +/- 1 degC, 60%RH. Format: functional. As to conditions: for LC50: Drosophila melanogaster, 120 h.
Series [11] deals with Drosophila melanogaster. The series is described as follows: Genotoxicity in Drosophila melanogaster larvae at 7.50 to 10 mg/l. Format: organism-based. The following applies: in vivo.
For series [12], the system named is Drosophila melanogaster. The series can be described thus: Genotoxicity in Drosophila melanogaster larvae at 10^-3 M. Format: organism-based. As to conditions: in vivo, 1000 µM.

Take `CC[C@H]1CCC[C@H](O[C@H]2CC[C@H](N(C)C)[C@@H](C)O2)[C@@H](C)C(=O)C2=C[C@@H]3[C@@H](C=C(C)[C@@H]4C[C@@H](O[C@@H]5O[C@@H](C)[C@H](OC)[C@@H](OC)[C@H]5OC)C[C@@H]34)[C@@H]2CC(=O)O1.CC[C@H]1CCC[C@H](O[C@H]2CC[C@H](N(C)C)[C@@H](C)O2)[C@@H](C)C(=O)C2=C[C@@H]3[C@@H](C=C[C@@H]4C[C@@H](O[C@@H]5O[C@@H](C)[C@H](OC)[C@@H](OC)[C@H]5OC)C[C@@H]34)[C@@H]2CC(=O)O1`: the LC90 is on record as 0.367 mg/L in the series on Drosophila melanogaster [1]; 0.422 mg/L in the series with Bactrocera oleae [2]; 0.345 mg/L with Bactrocera oleae [4]; 5.604 mg/L in the series with Drosophila melanogaster [5]; 1.998 mg/L in the series with Drosophila melanogaster [6]; 0.598 mg/L in the series with Bactrocera oleae [7]. Besides, the LC90 in the series on Bactrocera oleae [8] is 7.277 mg/L; in the series with Drosophila melanogaster [9], 0.308 mg/L; in the series on Drosophila melanogaster [10], 1.074 mg/L. Also, the median lethal concentration (LC50) with Drosophila melanogaster [1] was determined as 0.262 µg/mL; in the series on Bactrocera oleae [2], 0.191 µg/mL; with Bactrocera oleae [4] it was 0.111 µg/mL; in the series on Drosophila melanogaster [5], 3.8 µg/mL; in the series on Drosophila melanogaster [6], 1.26 µg/mL; in the series with Bactrocera oleae [7] it was 0.341 µg/mL. Further, the LC50 amounted to 4.06 µg/mL in the series with Bactrocera oleae [8], 0.13 µg/mL in the series on Drosophila melanogaster [9] and 0.75 µg/mL with Drosophila melanogaster [10]. The Activity entry in the series with Drosophila melanogaster [3] is on record as “Non-toxic”.

Take `CC1(C)[C@H](C(=O)O[C@H](C#N)c2cccc(Oc3ccccc3)c2)[C@@H]1C=C(Br)Br` [DELTAMETHRIN]: the LC90 with Drosophila melanogaster [1] is listed as 10.352 mg/L (≈ 20.5 µM); in the series on Bactrocera oleae [2], 0.161 mg/L (≈ 0.319 µM); with Bactrocera oleae [4], 0.398 mg/L (≈ 0.788 µM); with Drosophila melanogaster [5], 31.682 mg/L (≈ 62.7 µM); in the series on Drosophila melanogaster [6] it was 14.591 mg/L (≈ 28.9 µM); in the series with Bactrocera oleae [7] it was 1.002 mg/L (≈ 1.98 µM). The LC90 in the series with Bactrocera oleae [8] is given as 6.033 mg/L (≈ 11.9 µM); in the series on Drosophila melanogaster [9], 17.41 mg/L (≈ 34.5 µM); in the series with Drosophila melanogaster [10], 13.599 mg/L (≈ 26.9 µM). Besides, the median lethal concentration (LC50) worked out at 4.82 µg/mL (≈ 9.53 µM) with Drosophila melanogaster [1]; 0.176 µg/mL (≈ 0.348 µM) in the series with Bactrocera oleae [2]; 0.414 µg/mL (≈ 0.819 µM) with Bactrocera oleae [4]; 17.1 µg/mL (≈ 33.8 µM) in the series with Drosophila melanogaster [5]; 8.03 µg/mL (≈ 15.9 µM) in the series on Drosophila melanogaster [6]; 0.344 µg/mL (≈ 0.681 µM) in the series with Bactrocera oleae [7]. The LC50 with Bactrocera oleae [8] is 2.85 µg/mL (≈ 5.64 µM); in the series on Drosophila melanogaster [9] it was 4.96 µg/mL (≈ 9.81 µM); with Drosophila melanogaster [10] it was 7.24 µg/mL (≈ 14.3 µM). Also, the Activity entry with Drosophila melanogaster [11] is given as “Non-toxic”.

On to `CCOS(C)(=O)=O` [METHANESULFONIC ACID ETHYL ESTER], for which the Activity entry with Drosophila melanogaster [12] is on record as “Toxic”.

One may read the LC50 as the concentration that kills 50% of the test population.
